From PMC10222209 (Pharmaceuticals, 2023) come the findings set out here.

One assay has as its target T1, AR-full length (AR-FL) (Homo sapiens, UniProt P10275, T878A).
T1 sequence (P10275 1-920 T878A): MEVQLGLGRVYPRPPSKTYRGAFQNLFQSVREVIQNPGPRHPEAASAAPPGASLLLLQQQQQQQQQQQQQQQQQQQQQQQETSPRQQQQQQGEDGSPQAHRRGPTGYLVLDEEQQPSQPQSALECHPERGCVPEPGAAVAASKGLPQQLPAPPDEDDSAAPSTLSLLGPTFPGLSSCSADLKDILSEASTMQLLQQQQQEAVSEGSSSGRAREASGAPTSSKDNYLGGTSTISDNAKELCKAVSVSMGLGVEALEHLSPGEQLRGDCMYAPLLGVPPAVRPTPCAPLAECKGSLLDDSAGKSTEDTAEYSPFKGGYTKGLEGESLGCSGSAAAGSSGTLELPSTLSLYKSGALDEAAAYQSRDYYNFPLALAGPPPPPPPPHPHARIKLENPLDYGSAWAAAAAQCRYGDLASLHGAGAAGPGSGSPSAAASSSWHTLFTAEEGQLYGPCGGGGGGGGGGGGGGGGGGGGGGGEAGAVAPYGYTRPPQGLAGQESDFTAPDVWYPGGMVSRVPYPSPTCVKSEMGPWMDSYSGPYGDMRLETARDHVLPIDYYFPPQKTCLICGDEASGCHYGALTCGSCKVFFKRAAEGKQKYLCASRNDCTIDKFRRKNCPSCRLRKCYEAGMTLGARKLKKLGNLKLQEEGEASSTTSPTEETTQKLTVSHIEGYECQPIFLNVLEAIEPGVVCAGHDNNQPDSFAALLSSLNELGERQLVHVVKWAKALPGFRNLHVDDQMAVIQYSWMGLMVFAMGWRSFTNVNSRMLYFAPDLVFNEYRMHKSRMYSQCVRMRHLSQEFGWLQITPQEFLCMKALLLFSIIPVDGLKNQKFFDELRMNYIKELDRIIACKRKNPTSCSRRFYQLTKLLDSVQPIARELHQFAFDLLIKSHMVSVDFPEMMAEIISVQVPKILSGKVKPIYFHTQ
Description: AR downregulation in LNCaP95 cells (automated Western, Wes). Particulars: for downregulating the AR-FL, in words: LNCaP95; for DC50: read-out: AR Downregulation IC50, LNCaP95, 24 h treatment.

For a further assay, the system named is 22RV1 cells. The assay is described as follows: Antiproliferative assay (resazurin, 72 h) in 22RV1 cells. It counts as cell-based. The note with it: for inhibition at 1 µM / IC50: Homo sapiens; for antiproliferative activity, in words: enzalutamide-resistant cell lines LNCaP95 and 22RV1, SAR statements. The procedure: (§1) 22Rv1 cells were obtained from ATCC. LNCaP95 cells were provided by Dr. Yan Dong’s laboratory (Tulane University School of Medicine). LNCaP95 cells were maintained in an RPMI1640 medium with charcoal-stripped serum (CSS). 22Rv1 cells were maintained in an RPMI1640 medium with 10% FBS. Cells were seeded in 96-well plates (5 × 10^3 cells/well) containing a 50 μL growth medium for 24 h. After medium removal, a 100 μL fresh medium containing individual compounds at different concentrations was added to each well and incubated at 37 °C for 72 h. Then, 20 μL of resazurin was added for 2 h before recording fluorescence at 560 nm (excitation) and 590 nm (emission) using a Victor microtiter plate fluorometer (Perkin-Elmer, Waltham, MA, USA).
Background: The colour change of resazurin is a common sign of viable cells or microbes.

Assay [1] deals with T2, AR-V7 (Homo sapiens, UniProt P10275).
T2 sequence (P10275 1-644 isoform P10275-3): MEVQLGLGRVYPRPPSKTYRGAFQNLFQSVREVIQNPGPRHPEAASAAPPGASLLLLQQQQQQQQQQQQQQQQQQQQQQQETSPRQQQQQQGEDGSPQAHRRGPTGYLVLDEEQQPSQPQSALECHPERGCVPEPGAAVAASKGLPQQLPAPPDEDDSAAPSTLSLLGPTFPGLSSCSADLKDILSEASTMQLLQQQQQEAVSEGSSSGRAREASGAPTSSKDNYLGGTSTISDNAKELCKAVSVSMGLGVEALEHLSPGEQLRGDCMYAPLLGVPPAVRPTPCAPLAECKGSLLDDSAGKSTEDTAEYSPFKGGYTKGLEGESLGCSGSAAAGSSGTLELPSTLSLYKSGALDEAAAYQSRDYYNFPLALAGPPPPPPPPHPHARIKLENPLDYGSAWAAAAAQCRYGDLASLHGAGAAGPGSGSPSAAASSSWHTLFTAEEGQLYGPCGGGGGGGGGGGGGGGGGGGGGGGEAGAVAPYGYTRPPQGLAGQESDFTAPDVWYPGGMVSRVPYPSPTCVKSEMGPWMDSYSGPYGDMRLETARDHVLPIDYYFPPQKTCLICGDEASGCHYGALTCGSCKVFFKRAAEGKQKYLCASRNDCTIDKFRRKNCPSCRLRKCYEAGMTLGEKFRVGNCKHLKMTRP
The assay is described as follows: AR-V7 downregulation in LNCaP95 cells (automated Western, Wes). Particulars: for downregulating the AR-V7, in words: LNCaP95; for DC50: read-out: AR-V7 Downregulation IC50, LNCaP95, 24 h treatment.
Description: (§2) Total AR and AR-V7 protein levels were determined using automated Western blotting (Wes Simple Western Analysis, ProteinSimple, San Jose, CA, USA). WES analyses were performed following the WES user manual. Briefly, LNCaP95 and 22RV1 cells were plated in a 12-well plate at a density of 2.5 × 10^5 cells per well. […] Samples were mixed with a master mix (ProteinSimple, San Jose, CA, USA) to give a final concentration of 0.2 mg/mL total protein, 1 × sample buffer, 1 × fluorescent molecular weight markers, and 40 mM DTT. Samples were heated at 95 °C for 5 min followed by centrifugation. Samples, blocking solution, primary antibodies, horseradish peroxidase-conjugated secondary antibodies, chemiluminescent substrate, and separation and stacking matrices were loaded into designated wells in a 384 well plate. After plate loading, fully automated electrophoresis and immunodetection took place in the capillary system. Proteins were separated by molecular weight at 375 V for 25 min, and primary and secondary antibodies were incubated for 30 min. The AR (Santa Cruz, Santa Cruz, CA, USA), AR-V7 (Santa Cruz, Santa Cruz, CA, USA), and actin (Novus, cat #NB600-503) antibodies were diluted in a proprietary antibody diluent at a 1:50 dilution ratio. Chemiluminescence was captured by a charge-coupled device camera, and the digital image was analyzed using Compass software 6.2.0 (ProteinSimple). The amount of each protein, relative to total protein content, was calculated based on peak areas. Total AR and AR-V7 levels were normalized to actin.

Assay [2] deals with T2, AR-V7. The assay is described as follows: AR-V7 downregulation in 22RV1 cells (automated Western, Wes). The note with it: read-out: AR-V7 Downregulation IC50; 22RV1, 24 h treatment.
Description: as §2
A further assay concerns LNCaP95 cells. Description: Antiproliferative assay (resazurin, 72 h) in LNCaP95 cells. It counts as cell-based. The procedure: as §1
Where [3] appears, read: 22RV1, 1.0 μM, read-out: Inhibitory Rate 22RV1 @1.0 μM.
Setting [4] is: antiproliferation, 22RV1, 72 h, mean of three independent experiments, read-out: IC50 (μM) 22RV1.
[5] abbreviates: observed, −log IC50, 22RV1 antiproliferation, read-out: Obs pIC50 (converted).
Where [6] appears, read: LNCaP-95, antiproliferation, LNCaP95, 72 h, mean of three independent experiments, read-out: IC50 (μM) LNCaP95.

“Also recorded” adds a separate entry of the source. Like-named read-outs stand apart in the source and are kept apart here. Some results are limits rather than exact numbers.

Description for AR-full length (AR-FL): as §2

Consider `O=C(Nc1ccc(C(F)(F)F)c(C(F)(F)F)c1)c1cc(Cl)ccc1O` [B1], for which the “downregulating the AR-FL, in words” value at AR-full length (AR-FL) is given as “strong activity”. Besides, the DC50 at AR-full length (AR-FL) came out at 463 ± 224 nM; on AR-V7 [1] it was 280 ± 117 nM; at AR-V7 [2] it was 4280 ± 1360 nM. Also, in the assay on 22RV1 cells (setting [3]), the inhibition at 1 µM was determined as 59.2%. Also, the values for the IC50 in the assay with 22RV1 cells (setting [4]), in the assay with 22RV1 cells (setting [5]) and with LNCaP95 cells (setting [6]) were 0.258 ± 0.097 µM, 0.258 µM and 0.239 ± 0.072 µM, respectively. Moreover, in the assay on 22RV1 cells, the “antiproliferative activity, in words” value was “equivalent or improved anti-proliferation potency”. Besides, the “downregulating the AR-V7, in words” value on AR-V7 [1] is listed as “strong activity”.

Regarding `N#Cc1ccc(NC(=O)c2cc(Cl)ccc2O)cc1C(F)(F)F` [B3], the “downregulating the AR-FL, in words” value at AR-full length (AR-FL) is recorded as “strong activity”. For the same compound, the DC50 is 781 ± 512 nM on AR-full length (AR-FL), 850 ± 246 nM on AR-V7 [1] and 354 ± 134 nM on AR-V7 [2]. Further, the IC50 in the assay on 22RV1 cells (22Rv1, 72 h, read-out: IC50 (μM) 22RV1) was 0.695 ± 0.246 µM; in the assay with 22RV1 cells (22Rv1, read-out: Obs pIC50 (converted)), 0.695 µM; in the assay with LNCaP95 cells (LNCaP-95, 72 h, read-out: IC50 (μM) LNCaP95), 0.354 ± 0.066 µM. The inhibition at 1 µM in the assay on 22RV1 cells (22Rv1, read-out: Inhibitory Rate 22RV1 @1.0 μM) worked out at 34.9%. In addition, the “downregulating the AR-V7, in words” value at AR-V7 [1] is reported as “strong activity”.

Consider `O=C(Nc1ccc(C(F)(F)F)c(C(F)(F)F)c1)c1cc(F)ccc1O` [B9], for which the “downregulating the AR-FL, in words” value at AR-full length (AR-FL) is listed as “strong activity”. In addition, the values for the DC50 at AR-full length (AR-FL), at AR-V7 [1] and at AR-V7 [2] were 551 ± 173 nM, 467 ± 204 nM and 2860 ± 950 nM, respectively. Also, the IC50 with 22RV1 cells (22Rv1, antiproliferation, approximate value, read-out: IC50 in 22RV1 (text)) was around 0.1 µM; with 22RV1 cells (setting [4]), 0.0997 ± 0.0221 µM; in the assay with 22RV1 cells (setting [5]), 0.0991 µM; in the assay on LNCaP95 cells (setting [6]), 0.13 ± 0.033 µM; with LNCaP95 cells (LNCaP-95, antiproliferation, approximate value, read-out: IC50 in LNCaP95 (text)) it was around 0.1 µM. Also, the inhibition at 1 µM in the assay with 22RV1 cells (setting [3]) stood at 84.3%. The “antiproliferative activity, in words” value with 22RV1 cells is “equivalent or improved anti-proliferation potency”. Also, the “downregulating the AR-V7, in words” value at AR-V7 [1] was “strong activity”.

Consider `O=C(Nc1ccc(C(F)(F)F)c(C(F)(F)F)c1)c1cc(F)c(F)cc1O` [B14], for which, on AR-full length (AR-FL), the “downregulating the AR-FL, in words” value is given as “strong activity”. Also, the DC50 is 498 ± 185 nM on AR-full length (AR-FL), 491 ± 156 nM at AR-V7 [1] and above 10000 nM on AR-V7 [2]. The inhibition at 1 µM in the assay on 22RV1 cells (setting [3]) was found to be 47.3%. The IC50 in the assay with 22RV1 cells (setting [4]) was 0.382 ± 0.078 µM; in the assay on 22RV1 cells (setting [5]), 0.382 µM; with LNCaP95 cells (setting [6]), 0.199 ± 0.055 µM. On AR-V7 [1], the “downregulating the AR-V7, in words” value is on record as “strong activity”.

As to `O=C(Nc1ccc([N+](=O)[O-])c(C(F)(F)F)c1)c1cccc(Br)c1` [C5], the inhibition at 1 µM with 22RV1 cells (setting [3]) was 58.3%. Besides, the IC50 in the assay on 22RV1 cells (setting [4]) is 0.306 ± 0.058 µM; with 22RV1 cells (setting [5]), 0.306 µM; in the assay on LNCaP95 cells (setting [6]), 0.536 ± 0.201 µM. For the same compound, the “antiproliferative activity, in words” value in the assay on 22RV1 cells is recorded as “retained”.

On to `CC(=O)Oc1ccc(Cl)cc1C(=O)Nc1ccc([N+](=O)[O-])cc1Cl` [C7], for which, in the assay on 22RV1 cells (setting [3]), the inhibition at 1 µM came to 42.9%. Besides, the IC50 in the assay on 22RV1 cells (setting [4]) is 0.481 ± 0.113 µM; with 22RV1 cells (setting [5]) it was 0.481 µM; in the assay with LNCaP95 cells (setting [6]), 0.386 ± 0.098 µM. The “antiproliferative activity, in words” value with 22RV1 cells is reported as “comparable activity”.

For the compound `O=C(Nc1ccc([N+](=O)[O-])cc1Cl)c1cc(Cl)ccc1OS(=O)(=O)C(F)(F)F` [C8], the inhibition at 1 µM with 22RV1 cells (setting [3]) is 59.2%. In addition, the IC50 in the assay on 22RV1 cells (setting [4]) is 0.252 ± 0.092 µM; in the assay with 22RV1 cells (setting [5]) it was 0.252 µM; in the assay with LNCaP95 cells (setting [6]) it was 0.196 ± 0.064 µM. For the same compound, the “antiproliferative activity, in words” value in the assay with 22RV1 cells is on record as “equivalent or improved anti-proliferation potency; also recorded: slightly improved”.

Consider `O=C(Nc1ccc([N+](=O)[O-])cc1Cl)c1cc(Cl)ccc1O` [Niclosamide, reference compound], for which the inhibition at 1 µM in the assay with 22RV1 cells (setting [3]) came to 55.8%. Also, the IC50 in the assay with 22RV1 cells (setting [4]) is 0.284 ± 0.059 µM; in the assay on 22RV1 cells (setting [5]), 0.284 µM; with LNCaP95 cells (setting [6]), 0.372 ± 0.074 µM.
